# Key:
# [1] = target: T1, Ubiquitin carboxyl-terminal hydrolase 2 (Homo sapiens, UniProt O75604); assay: Inhibition of human USP2 using Di-Ub IQF as substrate incubated for 15 mins by K63-2 assay
# T1 sequence (O75604 whole entry): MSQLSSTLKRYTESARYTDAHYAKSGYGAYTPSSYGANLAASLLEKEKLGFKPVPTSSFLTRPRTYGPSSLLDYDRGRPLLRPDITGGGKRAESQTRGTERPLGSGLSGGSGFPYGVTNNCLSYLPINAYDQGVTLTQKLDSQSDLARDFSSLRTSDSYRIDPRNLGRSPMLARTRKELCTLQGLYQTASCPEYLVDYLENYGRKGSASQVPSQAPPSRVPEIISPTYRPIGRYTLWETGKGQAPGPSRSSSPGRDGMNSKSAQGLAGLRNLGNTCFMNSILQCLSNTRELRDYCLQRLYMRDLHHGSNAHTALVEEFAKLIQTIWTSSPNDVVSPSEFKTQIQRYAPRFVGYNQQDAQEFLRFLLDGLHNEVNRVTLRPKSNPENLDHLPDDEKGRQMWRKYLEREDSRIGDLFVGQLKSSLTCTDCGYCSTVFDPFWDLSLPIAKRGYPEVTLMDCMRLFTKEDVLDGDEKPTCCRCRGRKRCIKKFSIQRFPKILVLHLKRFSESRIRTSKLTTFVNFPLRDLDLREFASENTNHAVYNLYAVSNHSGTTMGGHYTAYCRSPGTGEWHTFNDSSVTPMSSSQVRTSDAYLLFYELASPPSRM
# [2] = target: T2, Ubiquitin carboxyl-terminal hydrolase 8 (Homo sapiens, UniProt P40818); assay: Inhibition of human USP8 using Di-Ub IQF as substrate incubated for 15 mins by K63-2 assay
# T2 sequence (P40818 whole entry): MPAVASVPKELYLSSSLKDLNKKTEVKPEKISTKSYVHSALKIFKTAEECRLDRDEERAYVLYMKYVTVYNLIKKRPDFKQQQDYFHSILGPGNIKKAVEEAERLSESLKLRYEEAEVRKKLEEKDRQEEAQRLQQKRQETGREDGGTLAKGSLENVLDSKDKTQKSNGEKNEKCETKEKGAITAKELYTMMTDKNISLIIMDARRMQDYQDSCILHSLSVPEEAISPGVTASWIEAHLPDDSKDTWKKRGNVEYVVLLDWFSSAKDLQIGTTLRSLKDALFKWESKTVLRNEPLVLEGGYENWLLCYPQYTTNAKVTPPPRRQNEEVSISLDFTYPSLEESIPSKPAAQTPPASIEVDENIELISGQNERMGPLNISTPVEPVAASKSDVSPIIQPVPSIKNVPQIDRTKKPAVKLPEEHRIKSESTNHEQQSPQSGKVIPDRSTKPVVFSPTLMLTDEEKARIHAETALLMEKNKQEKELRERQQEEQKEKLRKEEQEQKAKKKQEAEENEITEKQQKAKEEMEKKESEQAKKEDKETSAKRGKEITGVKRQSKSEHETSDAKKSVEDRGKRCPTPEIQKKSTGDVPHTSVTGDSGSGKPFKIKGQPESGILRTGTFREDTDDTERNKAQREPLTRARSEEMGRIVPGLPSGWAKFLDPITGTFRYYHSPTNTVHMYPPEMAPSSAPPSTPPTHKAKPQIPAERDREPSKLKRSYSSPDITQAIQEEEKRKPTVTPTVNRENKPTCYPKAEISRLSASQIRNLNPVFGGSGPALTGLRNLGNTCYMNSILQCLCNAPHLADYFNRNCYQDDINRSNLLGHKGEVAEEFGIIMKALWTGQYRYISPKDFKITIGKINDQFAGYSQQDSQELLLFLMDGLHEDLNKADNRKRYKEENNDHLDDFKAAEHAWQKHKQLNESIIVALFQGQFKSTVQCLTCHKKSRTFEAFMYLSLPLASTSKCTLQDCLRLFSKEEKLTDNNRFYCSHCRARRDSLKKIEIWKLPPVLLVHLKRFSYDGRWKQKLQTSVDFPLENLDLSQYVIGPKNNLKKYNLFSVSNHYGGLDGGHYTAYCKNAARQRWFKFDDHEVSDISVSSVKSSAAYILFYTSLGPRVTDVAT
# HCT-116 [3] = assay: Anticancer activity against human HCT-116 cells assessed as cell growth inhibition incubated for 72 hrs by CellTiter Glo assay; type: functional, cell-based; details: HCT-116, 72 h
# [4] = target: T2, Ubiquitin carboxyl-terminal hydrolase 8; assay: Inhibition of human his tagged USP8 by Westernblot analysis
# [5] = target: Ubiquitin carboxyl-terminal hydrolase 20 (Homo sapiens, UniProt Q9Y2K6); assay: Inhibition of human his tagged USP20 by Westernblot analysis
# [6] = target: T1, Ubiquitin carboxyl-terminal hydrolase 2; assay: Inhibition of human his tagged USP2 by Westernblot analysis
# [7] = target: T3, Ubiquitin carboxyl-terminal hydrolase isozyme L1 (Homo sapiens, UniProt P09936); assay: Inhibition of human his tagged UCH-L1 by Westernblot analysis
# T3 sequence (P09936 whole entry): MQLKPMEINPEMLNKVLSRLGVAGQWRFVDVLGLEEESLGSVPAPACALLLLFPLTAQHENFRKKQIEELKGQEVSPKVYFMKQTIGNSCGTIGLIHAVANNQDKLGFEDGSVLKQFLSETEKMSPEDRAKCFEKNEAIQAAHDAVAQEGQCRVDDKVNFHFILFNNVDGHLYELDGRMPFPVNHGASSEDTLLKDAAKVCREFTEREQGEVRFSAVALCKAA
# [8] = target: T4, Ubiquitin carboxyl-terminal hydrolase 5 (Homo sapiens, UniProt P45974); assay: Inhibition of human his tagged USP5 by Westernblot analysis
# T4 sequence (P45974 whole entry): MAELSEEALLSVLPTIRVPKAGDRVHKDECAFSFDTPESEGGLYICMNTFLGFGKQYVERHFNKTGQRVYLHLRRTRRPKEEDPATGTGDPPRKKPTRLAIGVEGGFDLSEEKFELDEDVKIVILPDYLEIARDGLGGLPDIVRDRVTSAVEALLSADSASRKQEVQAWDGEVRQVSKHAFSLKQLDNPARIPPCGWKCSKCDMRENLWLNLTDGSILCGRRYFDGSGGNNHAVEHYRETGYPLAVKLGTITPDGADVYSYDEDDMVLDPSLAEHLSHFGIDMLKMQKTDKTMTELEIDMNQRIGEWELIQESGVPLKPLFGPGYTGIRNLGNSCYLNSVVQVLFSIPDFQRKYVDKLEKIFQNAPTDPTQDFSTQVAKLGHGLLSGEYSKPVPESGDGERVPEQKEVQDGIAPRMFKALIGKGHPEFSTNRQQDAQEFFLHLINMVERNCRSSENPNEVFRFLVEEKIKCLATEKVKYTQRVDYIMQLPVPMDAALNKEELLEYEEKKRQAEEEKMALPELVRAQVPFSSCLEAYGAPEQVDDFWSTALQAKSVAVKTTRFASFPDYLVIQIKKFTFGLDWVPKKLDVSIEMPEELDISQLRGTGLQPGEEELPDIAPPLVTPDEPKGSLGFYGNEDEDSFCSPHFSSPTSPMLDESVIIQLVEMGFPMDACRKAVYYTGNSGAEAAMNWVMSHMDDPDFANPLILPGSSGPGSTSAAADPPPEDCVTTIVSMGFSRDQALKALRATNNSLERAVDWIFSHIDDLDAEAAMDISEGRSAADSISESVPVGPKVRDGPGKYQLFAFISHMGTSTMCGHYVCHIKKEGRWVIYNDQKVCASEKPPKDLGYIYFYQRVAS
# [9] = target: T5, Ubiquitin carboxyl-terminal hydrolase isozyme L3 (Homo sapiens, UniProt P15374); assay: Inhibition of human his tagged UCH-L3 by Westernblot analysis
# T5 sequence (P15374 whole entry): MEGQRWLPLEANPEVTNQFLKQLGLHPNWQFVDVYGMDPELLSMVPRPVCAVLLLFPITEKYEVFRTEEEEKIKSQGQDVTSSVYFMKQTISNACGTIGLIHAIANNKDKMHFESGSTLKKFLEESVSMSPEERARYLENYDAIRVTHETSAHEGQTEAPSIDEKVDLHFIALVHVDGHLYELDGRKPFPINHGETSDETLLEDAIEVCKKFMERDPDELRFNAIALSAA
# [10] = target: T6, Ubiquitin carboxyl-terminal hydrolase 7 (Homo sapiens, UniProt Q93009); assay: Inhibition of human his tagged USP7 (208 to 560 residues) expressed in insect sf9 cells using monoubiquitinated ubiquitin-rhodamine as substrate assessed as dissociation constant incubated for 1 hrs by fluorescence based assay
# Target sequence in this assay (Q93009 whole entry, the tested form may be a part): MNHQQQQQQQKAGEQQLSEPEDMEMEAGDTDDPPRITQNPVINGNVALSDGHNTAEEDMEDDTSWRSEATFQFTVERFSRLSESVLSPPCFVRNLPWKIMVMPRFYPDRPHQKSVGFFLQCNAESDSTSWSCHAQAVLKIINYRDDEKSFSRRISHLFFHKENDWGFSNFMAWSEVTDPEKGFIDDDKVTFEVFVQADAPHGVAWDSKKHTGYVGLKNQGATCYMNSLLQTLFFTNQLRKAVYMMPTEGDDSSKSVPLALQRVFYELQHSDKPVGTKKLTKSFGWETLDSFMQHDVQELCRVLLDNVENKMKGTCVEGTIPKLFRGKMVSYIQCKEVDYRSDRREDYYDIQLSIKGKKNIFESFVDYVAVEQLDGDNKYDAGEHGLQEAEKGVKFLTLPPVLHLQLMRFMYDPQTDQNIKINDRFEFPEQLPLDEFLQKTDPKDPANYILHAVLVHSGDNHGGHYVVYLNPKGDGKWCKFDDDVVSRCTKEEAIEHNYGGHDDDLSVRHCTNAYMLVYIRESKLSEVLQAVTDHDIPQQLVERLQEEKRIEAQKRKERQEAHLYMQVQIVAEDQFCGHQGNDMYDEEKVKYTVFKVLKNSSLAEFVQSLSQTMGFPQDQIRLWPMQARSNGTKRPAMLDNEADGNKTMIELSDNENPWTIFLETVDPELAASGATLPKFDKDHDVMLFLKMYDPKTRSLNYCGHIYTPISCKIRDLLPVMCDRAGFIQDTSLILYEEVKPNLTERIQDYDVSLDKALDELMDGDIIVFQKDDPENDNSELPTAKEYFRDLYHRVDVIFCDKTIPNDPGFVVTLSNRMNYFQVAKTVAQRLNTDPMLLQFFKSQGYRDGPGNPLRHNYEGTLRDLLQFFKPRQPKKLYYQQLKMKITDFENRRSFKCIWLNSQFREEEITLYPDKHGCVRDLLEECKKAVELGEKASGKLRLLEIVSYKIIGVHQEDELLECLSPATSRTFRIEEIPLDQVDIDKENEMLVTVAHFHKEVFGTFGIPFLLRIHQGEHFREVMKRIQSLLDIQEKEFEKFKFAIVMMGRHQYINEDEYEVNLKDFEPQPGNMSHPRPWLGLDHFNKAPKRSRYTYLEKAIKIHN
# [11] = target: T6, Ubiquitin carboxyl-terminal hydrolase 7; assay: Inhibition of human his tagged USP7 (208 to 560 residues) expressed in insect sf9 cells using monoubiquitinated ubiquitin-rhodamine as substrate assessed as ratio of Kinact/Ki incubated for 1 hrs by fluorescence based assay
# Target sequence in this assay (Q93009 whole entry, looked up, the tested form may be a part): as the sequence (Q93009 whole entry, the tested form may be a part) above
# [12] = target: T6, Ubiquitin carboxyl-terminal hydrolase 7; assay: Inhibition of human USP7 by SPR analysis
# Target sequence in this assay (Q93009 whole entry, the tested form may be a part): as above
# [13] = target: Ubiquitin carboxyl-terminal hydrolase 24 (Homo sapiens, UniProt Q9UPU5); assay: Inhibition of USP24 (unknown origin)
# [14] = target: T6, Ubiquitin carboxyl-terminal hydrolase 7; assay: Inhibition of human USP7 using Ub-Rho110 as substrate by fluorescence based SPR analysis
# Target sequence in this assay (Q93009 whole entry, the tested form may be a part): as above
# [15] = target: T6, Ubiquitin carboxyl-terminal hydrolase 7; assay: Inhibition of human his tagged USP7 (208 to 560 residues) catalytic domain expressed in insect sf9 cells using monoubiquitinated ubiquitin-rhodamine as substrate incubated for 1 hrs by fluorescence based assay
# Target sequence in this assay (Q93009 whole entry, the tested form may be a part): as above
# MM1.S = assay: Anticancer activity against human MM1.S cells assessed as cell growth inhibition incubated for 120 hrs by CellTiter-Glo assay; type: functional, cell-based
# HCT-116 [16] = assay: Anticancer activity against human HCT-116 cells assessed as cell growth inhibition; type: functional, cell-based
# [17] = target: T7, Ubiquitin carboxyl-terminal hydrolase 14 (Homo sapiens, UniProt P54578); assay: Inhibition of human USP14 using Ub-PA as substrate assessed as deubiquitination level incubated for 1 hr by SDS-PAGE assay
# [18] = target: T4, Ubiquitin carboxyl-terminal hydrolase 5; assay: Inhibition of human USP5 using Ub-PA as substrate assessed as deubiquitination level incubated for 1 hr by SDS-PAGE assay
# [19] = target: T7, Ubiquitin carboxyl-terminal hydrolase 14; assay: Inhibition of human his tagged USP14 assessed as dissociation constant by SPR analysis
# [20] = target: T8, Ubiquitin carboxyl-terminal hydrolase isozyme L5 (Homo sapiens, UniProt Q9Y5K5); assay: Inhibition of human his tagged UCHL5 assessed as dissociation constant by SPR analysis
# T8 sequence (Q9Y5K5 whole entry): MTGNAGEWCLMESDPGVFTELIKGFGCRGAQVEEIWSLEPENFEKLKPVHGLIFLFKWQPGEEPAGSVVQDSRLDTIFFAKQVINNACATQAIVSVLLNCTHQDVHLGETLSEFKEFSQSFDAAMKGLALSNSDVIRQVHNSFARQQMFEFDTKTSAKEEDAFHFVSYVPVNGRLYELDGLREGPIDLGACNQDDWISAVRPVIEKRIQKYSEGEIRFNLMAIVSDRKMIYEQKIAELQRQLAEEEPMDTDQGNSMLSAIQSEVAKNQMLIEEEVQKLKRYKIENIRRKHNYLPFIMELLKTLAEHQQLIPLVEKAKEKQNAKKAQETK
# [21] = target: T7, Ubiquitin carboxyl-terminal hydrolase 14; assay: Inhibition of human his tagged USP14 by SPR analysis
# [22] = target: Ubiquitin carboxyl-terminal hydrolase 9X (Homo sapiens, UniProt Q93008); assay: Inhibition of USP9x (unknown origin)
# [23] = Aqueous solubility of compound; type: physicochemical
# T7 sequence (P54578 whole entry): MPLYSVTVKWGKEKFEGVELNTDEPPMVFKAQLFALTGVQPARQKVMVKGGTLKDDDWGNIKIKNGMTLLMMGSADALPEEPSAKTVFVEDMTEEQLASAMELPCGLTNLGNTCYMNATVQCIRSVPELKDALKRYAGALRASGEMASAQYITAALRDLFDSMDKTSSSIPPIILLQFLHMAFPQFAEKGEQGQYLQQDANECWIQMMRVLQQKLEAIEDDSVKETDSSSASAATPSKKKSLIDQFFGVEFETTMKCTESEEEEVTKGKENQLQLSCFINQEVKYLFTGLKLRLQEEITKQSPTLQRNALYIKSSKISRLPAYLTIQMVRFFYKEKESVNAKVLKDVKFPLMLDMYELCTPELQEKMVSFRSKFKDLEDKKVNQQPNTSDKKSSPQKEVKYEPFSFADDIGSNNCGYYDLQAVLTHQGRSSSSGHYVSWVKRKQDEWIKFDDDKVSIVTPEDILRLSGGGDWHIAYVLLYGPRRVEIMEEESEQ
# Chain of Ubiquitin carboxyl-terminal hydrolase 20 (Q9Y2K6 whole entry): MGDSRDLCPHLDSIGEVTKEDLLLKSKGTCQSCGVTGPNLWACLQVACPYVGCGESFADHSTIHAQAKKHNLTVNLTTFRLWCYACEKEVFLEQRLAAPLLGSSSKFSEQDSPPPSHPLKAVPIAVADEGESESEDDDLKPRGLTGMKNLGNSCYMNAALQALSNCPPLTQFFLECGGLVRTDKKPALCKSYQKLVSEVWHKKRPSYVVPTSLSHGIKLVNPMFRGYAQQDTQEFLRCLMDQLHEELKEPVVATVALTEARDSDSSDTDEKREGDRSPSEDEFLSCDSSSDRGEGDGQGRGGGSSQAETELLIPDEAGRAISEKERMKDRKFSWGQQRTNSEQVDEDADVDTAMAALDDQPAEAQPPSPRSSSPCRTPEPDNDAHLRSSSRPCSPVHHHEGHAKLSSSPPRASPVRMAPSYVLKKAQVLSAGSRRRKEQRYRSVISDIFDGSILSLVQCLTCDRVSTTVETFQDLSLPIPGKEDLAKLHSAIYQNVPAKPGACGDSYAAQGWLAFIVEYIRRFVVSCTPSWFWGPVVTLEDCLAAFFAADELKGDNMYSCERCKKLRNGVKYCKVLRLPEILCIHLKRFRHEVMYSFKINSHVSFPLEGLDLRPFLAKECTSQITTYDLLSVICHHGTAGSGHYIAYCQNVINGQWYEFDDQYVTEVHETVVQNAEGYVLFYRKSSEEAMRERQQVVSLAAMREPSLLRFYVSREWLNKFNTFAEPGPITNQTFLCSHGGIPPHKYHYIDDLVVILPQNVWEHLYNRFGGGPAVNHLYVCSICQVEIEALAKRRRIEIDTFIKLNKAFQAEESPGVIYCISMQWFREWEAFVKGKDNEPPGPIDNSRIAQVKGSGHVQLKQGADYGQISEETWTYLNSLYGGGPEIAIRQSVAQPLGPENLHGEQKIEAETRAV
compound,measurement,setting,value
Cc1ccc(S(=O)(=O)Nc2cc(C(F)(F)F)ccc2C(=O)Nc2nc(-c3ccccc3)cs2)cc1,IC50,[1],1100 nM
same,IC50,[2],950 nM
same,EC50,HCT-116 [3],3600 nM
O=C(NCCc1ccc(Cl)cc1)c1ccc2nc3c(c(Cl)c2c1)CCCC3,IC50,[4],> 200000 nM
same,IC50,[5],> 200000 nM
same,IC50,[6],> 200000 nM
same,IC50,[7],> 200000 nM
same,IC50,[8],> 200000 nM
same,IC50,[9],> 200000 nM
C=CS(=O)(=O)Nc1ccccc1-c1ccc(C(=O)N2CCC(O)(Cn3cnc4c(cnn4-c4ccc(F)cc4)c3=O)CC2)cc1,Kd,[10],7800 nM
same,Ratio,[11],66 M⁻¹ s⁻¹
same,IC50,[12],65 nM
CCCC(NC(=O)/C(C#N)=C/c1nc(Cl)ccc1Cl)c1ccc(OCCN2CCOCC2)cc1 (centres undefined),IC50,[13],2500 nM
NCc1ccc(-c2[nH]nc3c(=O)n(CC4(O)CCN(C(=O)C[C@H](c5ccccc5)C(F)(F)F)CC4)cnc23)cc1,IC50,[14],1.5 nM
O=C(C[C@@H](C(F)F)n1ccc(F)n1)N1CCC(O)(Cn2cnc3c(cnn3-c3ccc(F)cc3)c2=O)CC1,IC50,[15],69 nM
same,IC50,MM1.S,33 nM
CN(CCCNC(=O)c1ccc2nc3c(c(Cl)c2c1)CCCC3)Cc1ccccc1,IC50,HCT-116 [16],2000 nM
Cc1cc(C(=O)CN2CCCCC2)c(C)n1-c1ccc(F)cc1,IC50,[17],680 nM
same,IC50,[18],29100 nM
C=CC(=O)N1CC/C(=C\c2ccc(F)c([N+](=O)[O-])c2)C(=O)/C(=C/c2ccc(F)c([N+](=O)[O-])c2)C1,Kd,[19],14000 nM
same,Kd,[20],1500 nM
same,IC5,[21],10 µM
CCC[C@H](NC(=O)/C(C#N)=C/c1cccc(Br)n1)c1ccccc1,IC50,[22],2500 nM
same,solubility,[23],2.3 µM

# — ChEMBL document CHEMBL5233229, “Recent advances in the development of ubiquitin-specific-processing protease 7 (USP7) inhibitors” (Eur J Med Chem, 2020)
